According to patent US12023308B2, “Agents for reversing toxic proteinopathies” (THE BROAD INSTITUTE, INC., priority 2019, dated 2024):

Key:
ER stress and the UPR = test: RNA-Seq pathway analysis of fs/+ mouse kidney lysates; type: in vivo; settings: fs/+ mice, 50 mg/kg/day, 7 days
Description: RNA was extracted from a sagittal section of a half-kidney. Kidney tissue was homogenized using tissue homogenizer (Tissue-Tearor™, BioSpec Products) in 1 mL of TRIzol™ Reagent (15596026, Thermo Fisher Scientific®). Following 5 min incubation, 0.2 mL chloroform (C2432-500ML, Sigma-Aldrich) was added, and samples were vigorously mixed for 30 sec, then centrifuged at 12,000×g at 4° C. for 15 min. The upper aqueous phase containing RNA was then vigorously mixed with 0.5 mL of isopropanol for 30 sec. After 10 min incubation at RT, the samples were centrifuged at 12,000×g at 4° C. for 10 min. The pellet was resuspended in 1 mL of 75% ethanol and centrifuged at 12,000×g 4° C. for 5 min. The RNA pellet was then air dried for 15 min, dissolved in 50 μL of Nuclease-Free Water (AM9937, Thermo Fisher Scientific®), treated with DNase I, Amplification Grade (18068015, Thermo Fisher Scientific®) following the manufacturer's protocol and assessed for yield and purity by NanoDrop™ 2000 (Thermo Fisher Scientific®).
Data processing and statistical analyses for all RNA-seq experiments were performed in RStudio—Version 1.0.153 as follows. First, bam files obtained from the Broad Institute sequencing platform were reverted to FASTQ files followed by alignment of paired end reads to the mm10 mouse or hg19 human reference genome using STAR. […]

rhodopsin P23H = test: GFP fluorescence in N cells expressing rhodopsin P23H-GFP; type: cell-based, human; settings: 5 μM, 24 hours
Description: N cells plated in 96-well plates were transfected with 20 ng/well of P23H mutant rhodopsin-GFP plasmid DNA using Lipofectamine 3000 (Thermo Fisher Scientific®). Eight hr post-transfection, the cells were washed and processed as described below.
For the GFP-rhodopsin experiments (FIGS. 15D and 15E), cells were identified by digital phase contrast. GFP signal was calculated only in cells expressing GFP signal above a minimal background (to identify successfully transfected cells) and the mean intensity was averaged for each well.
Detection of MUC1-fs in P cells at baseline and following secretory pathway perturbations was performed using immunoblot and IF analyses. For immunoblot experiments (FIGS. 5E and 13D), P cells were grown in 6-well plates to high confluence. For IF experiments (FIGS. 5B-5D and 13A-13C), P cells were plated in 384-well plates at 12,000 cells/well. Following 24 hr, cells were treated with 5 μM BRD-4780 or DMSO alone, or in combination with 100 nM Bafilomycin A (B1793, Sigma-Aldrich), or 200 ng/mL Brefeldin A (B7651, Sigma-Aldrich) for a maximum period of 24 hr as indicated. For TMED9 or Nischarin depletion experiments, transduced/transfected P cells were plated either in 96-well plates at 60,000 cells/well for IF (FIGS. 6C, 6D and 14B), or grown in 6-well plates to high confluence for immunoblot detection (FIGS. 6B and 14C). […]

[1] = In vitro toxicity (cell number / viability); type: cell-based; settings: any concentration tested
Description: Image acquisition and analysis was done as described elsewhere herein. Following image analysis, three parameters were selected, i) MUC1-fs and ii) MUC1-wt total cytoplasm intensity (averaged per cell) and iii) cell number as was detected by Hoechst 33342 stained nuclei. The levels of MUC1-fs and MUC1-wt found following DMSO and JQ1 were defined as 0 and −100% activity, respectively. […] Cell number was normalized to DMSO control. All compound concentrations showing >−20% reduction in cell number were masked out. Based on ±3 median absolute deviation value (FIG. 10A), hit calling criteria for the primary and secondary screens were chosen as MUC1-fs reduction >30% in two or more consecutive concentrations for both replicates. For the secondary screen, dose response curves were generated for each parameter using Genedata Screener (Genedata AG), and positive hits for the profiling screens were selected based on the compounds activity for reducing MUC1-fs and lack of toxicity. MUC1-fs specificity (according to MUC1 fs/wt ratio) was used as an additional positive criterion for selection.

CC(C)[C@@H]1[C@H]2CC[C@H](C2)[C@H]1N (racemic) [BRD-4780, 2-endo-amino-3-exo-isopropylbicyclo[2.2.1]heptane]
pathways changed in kidney bulk RNA-Seq (ER stress and the UPR): downregulated pathways associated with ER stress and the UPR
GFP fluorescence of GFP-rhodopsin P23H (rhodopsin P23H): significantly decreased GFP fluorescence at 24 hours
in vitro toxicity [1]: no overt toxicity at any concentration tested
